Data published in PubChem BioAssay (NCI).
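Briefly, cells in 96-well plates were exposed to five compound concentrations for 48 h, and endpoints were estimated by linear interpolation. TGI marks complete inhibition of growth.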

Assays:
Test in all cases: NCI tumour cell line growth inhibition, 48 h
ACHN renal = test system: ACHN renal
CCRF-CEM leukemia = test system: CCRF-CEM leukemia
DU-145 prostate = test system: DU-145 prostate
HCC-2998 colon = test system: HCC-2998 colon
HOP-62 NSCLC = test system: HOP-62 NSCLC
HT29 colon = test system: HT29 colon
MDA-N = test system: MDA-N
NCI-H522 lung = test system: NCI-H522 lung
OVCAR-5 ovarian = test system: OVCAR-5 ovarian
OVCAR-8 ovarian = test system: OVCAR-8 ovarian
SF-295 CNS = test system: SF-295 CNS
SF-539 CNS = test system: SF-539 CNS
SK-OV-3 ovarian = test system: SK-OV-3 ovarian
SNB-75 CNS = test system: SNB-75 CNS
TK-10 renal = test system: TK-10 renal
U251 CNS = test system: U251 CNS
UO-31 renal = test system: UO-31 renal
A498 renal = test system: A498 renal
HL-60(TB) leukemia = test system: HL-60(TB) leukemia
HOP-92 NSCLC = test system: HOP-92 NSCLC

Row | SMILES | TGI (ACHN renal) [µM] | TGI (CCRF-CEM leukemia) [µM] | TGI (DU-145 prostate) [µM] | TGI (HCC-2998 colon) [µM] | TGI (HOP-62 NSCLC) [µM] | TGI (HT29 colon) [µM] | TGI (MDA-N) [µM] | TGI (NCI-H522 lung) [µM] | TGI (OVCAR-5 ovarian) [µM] | TGI (OVCAR-8 ovarian) [µM] | TGI (SF-295 CNS) [µM] | TGI (SF-539 CNS) [µM] | TGI (SK-OV-3 ovarian) [µM] | TGI (SNB-75 CNS) [µM] | TGI (TK-10 renal) [µM] | TGI (U251 CNS) [µM] | TGI (UO-31 renal) [µM] | TGI (A498 renal) [µM] | TGI (HL-60(TB) leukemia) [µM] | TGI (HOP-92 NSCLC) [µM]
1 | CCOC(=O)CC(=O)Nc1cccc2sc3ncccc3c(=O)c12 | > 100 | > 100 | > 100 | > 100 | > 100 | > 100 | > 100 | > 100 | > 100 | > 100 | > 100 | > 100 | > 100 | > 100 | > 100 | > 100 | > 100 | – | – | –
2 | CN(C(=S)Cc1ccc(Cl)c(Cl)c1)C1CCCC[C@@H]1N1CCCC1 (stereo not given in full) | > 100 | – | > 100 | – | > 100 | 45.5 | 36.2 | – | > 100 | – | 36.2 | > 100 | > 100 | – | 89.2 | > 100 | 48.8 | 60.6 | > 100 | –
3 | Cc1cc2c(nn1)CCc1c-2no[n+]1[O-] | > 100 | > 100 | – | > 100 | > 100 | > 100 | > 100 | > 100 | > 100 | > 100 | > 100 | > 100 | > 100 | > 100 | > 100 | > 100 | > 100 | – | – | –
4 | CCCCCN(CCCCC)C(=O)[C@H](CCC(=O)O)NC(=O)c1cc2ccccc2[nH]1 | > 100 | > 100 | – | > 100 | > 100 | > 100 | – | 67.7 | > 100 | > 100 | > 100 | > 100 | > 100 | 98.4 | > 100 | > 100 | > 100 | > 100 | 61.8 | 99.4
5 | COc1ccc(/C=C2\CCC(C)c3c2nc(N)c(C#N)c3-c2ccc(OC)c(OC)c2)cc1OC (stereo not given) | > 100 | > 100 | > 100 | – | 9.95 | > 100 | > 100 | – | > 100 | > 100 | > 100 | > 100 | > 100 | – | > 100 | > 100 | > 100 | – | > 100 | –
6 | O=C(Nc1ccc([N+](=O)[O-])cc1[N+](=O)[O-])C(=O)C(C(=O)c1ccc(Cl)c(Cl)c1)C1OC(=O)c2ccccc21 (stereo not given) | > 100 | 95 | – | – | 36.9 | 71.1 | – | 44.7 | 65.9 | 45.5 | 40.7 | – | 82.5 | > 100 | 93.7 | > 100 | 80.9 | 68.8 | 85.3 | 9.46
7 | Clc1ccc(C(Cc2ccccc2)c2c(Cl)nc(N3CCNCC3)nc2Cl)cc1 (stereo not given) | 29.9 | 27.2 | 27.6 | 26 | 30.2 | 6.27 | – | 25.9 | 32 | 27.3 | 36 | 28.8 | 33.2 | 27.2 | 34.3 | 26.9 | 27.2 | 24.8 | 10.7 | 25.7
